Results published in patent publication US8623862B2, “Derivatives of N-[(1H-pyrazol-1-yl)aryl]-1H-indole or 1H-indazole-3-carboxamide, preparation thereof and applications thereof in therapeutics” (Sanofi, priority 2011, dated 2014).
pIC50: −log10 of the molar value. Counter-ions that a name gives are not always drawn. Like-named read-outs stand apart in the source and are kept apart here.

System: platelet aggregation
Assay: Inhibition of platelet aggregation in vitro (rat blood);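 as to Inhibition of platelet aggregation in vitro (rat blood) in μM: aggregation induced by ADP added as 4 µL of a 250 µM solution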
Format: cell-based
Conditions: for pIC50: read-out: Inhibition of platelet aggregation in vitro (rat blood);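 as to Inhibition of platelet aggregation in vitro (rat blood) in μM: aggregation induced by ADP added as 4 µL of a 250 µM solution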
Description: The measurements of platelet aggregation are performed at 37° C. in glass tubes (Chrono-Log—Kordia aggregometer).
Inhibition of Platelet Aggregation In Vitro (Rat Blood)
The blood is taken from male rats of the Sprague-Dawley strain, weighing 250-300 g.
The platelet-rich plasma (PRP) is obtained by centrifugation of the blood at 300 g for 5 minutes, and the measurements of platelet aggregation are performed as described above.
The results are calculated using the area under the curve of absorbance measured for 6 minutes, and expressed as percentage inhibition.

[1] = rat platelet-rich plasma, ADP-induced aggregation, area under the curve of absorbance for 6 minutes

SMILES	pIC50 (rat blood, in vitro)	pIC50 [1]	further results
CCCC(=O)c1cnn(-c2ccc(NC(=O)c3cn(CC(=O)N4CCN(C)CC4)c4cc(C)c(Br)cc34)cc2)c1C [Compound 112]	6.44	–	–
CCCC(=O)c1cnn(-c2ccc(NC(=O)c3cn(CC(=O)N4CCN(CC(=O)N(C)C)CC4)c4ccc(Cl)cc34)nn2)c1C [Compound 101]	–	6.96	–
CCCC(=O)c1cnn(-c2ccc(NC(=O)c3cn(CC(=O)N4CCN(CC5CCCO5)CC4)c4ccc(Cl)cc34)nn2)c1C (racemic) [Compound 63]	–	6.92	–
CCCC(=O)c1cnn(-c2ccc(NC(=O)c3cn(CC(=O)N(C)C)c4ccc(Cl)cc34)nn2)c1C [Compound 36]	–	6.96	–
CCCC(=O)c1cnn(-c2ccc(NC(=O)c3cn(CC(=O)N4CCN(CC5CC5)CC4)c4ccc(C)cc34)cc2)c1C [Compound 121]	5.97	–	–
CCCC(=O)c1cnn(-c2ccc(NC(=O)c3cn(CC(=O)N4CCN(CCS(C)(=O)=O)CC4)c4ccc(Cl)cc34)cc2)c1C [Compound 148]	6.82	–	–
CCCC(=O)c1cnn(-c2ccc(NC(=O)c3cn(CC(=O)NCC(C)(C)N(C)C)c4ccc(Cl)cc34)nn2)c1C [Compound 83]	–	6.48	–
CCCC(=O)c1cnn(-c2ccc(NC(=O)c3cn(CC(=O)N4CCN(C)CC4)c4cc(C)c(Cl)cc34)cc2)c1C [Compound 113]	6.21	–	–
CCCC(=O)c1cnn(-c2ccc(NC(=O)c3cn(CC(=O)N4CCS(=O)(=O)CC4)c4ccc(Cl)cc34)nn2)c1C [Compound 71]	–	6.92	–
CCCC(=O)c1cnn(-c2ccc(NC(=O)c3cn(CC(=O)O)c4ccc(OC)cc34)cc2)c1C [Compound 12]	–	4.77	–
CCCC(=O)c1cnn(-c2ccc(NC(=O)c3cn(CC(=O)N4CCOCC4)c4ccc(C)cc34)cc2)c1C [Compound 128]	6.54	–	–
CCCC(=O)c1cnn(-c2ccc(NC(=O)c3cn(CC(=O)N4CCN(CCNC(C)=O)CC4)c4ccc(Cl)cc34)cc2)c1C [Compound 197]	6.60	–	–
CCCC(=O)c1cnn(-c2ccc(NC(=O)c3cn(CC(=O)NC4CCCN(C)C4)c4ccc(C)cc34)cc2)c1C (stereo not drawn) [Compound 267]	–	–	pIC50 (0.1 h, rat platelet-rich plasma, ADP-induced aggregation, area under the curve of absorbance for 6 minutes): 6.35
CCCC(=O)c1cnn(-c2ccc(NC(=O)c3cn(CC(=O)N4CCN(c5ccc(F)cc5)CC4)c4ccc(Cl)cc34)nn2)c1C [Compound 45]	–	6.38	–
CCCC(=O)c1cnn(-c2ccc(NC(=O)c3cn(CC(=O)N4CC5CNCC5C4)c4ccc(C)cc34)cc2)c1C (stereo not drawn) [Compound 255]	–	6.74	–
CCCC(=O)c1cnn(-c2ccc(NC(=O)c3cn(CC(=O)N4CCN(C)C(=O)C4)c4ccc(Cl)cc34)cc2)c1C [Compound 184]	6.77	–	–
CCCC(=O)c1cnn(-c2ccc(NC(=O)c3cn(CC(=O)N4CC5CC4CN5C4CCC4)c4ccc(Cl)cc34)cc2)c1C (stereo not drawn) [Compound 214]	6.18	–	–
CCCC(=O)c1cnn(-c2ccc(NC(=O)c3cn(CC(=O)N4CCN(Cc5ccccc5OC)CC4)c4ccc(Cl)cc34)cc2)c1C [Compound 168]	6.43	–	–
CCCC(=O)c1cnn(-c2ccc(NC(=O)c3cn(CC(=O)N4CCC(N)CC4)c4ccc(C)cc34)cc2)c1C [Compound 252]	–	6.40	–
CCCC(=O)c1cnn(-c2ccc(NC(=O)c3cn(CC(=O)N4CCN(CCC(=O)OCC)CC4)c4ccc(Cl)cc34)cc2)c1C [Compound 153]	6.54	–	–

SMILES	pIC50 (rat blood, in vitro)	pIC50 [1]	further results
CCCC(=O)c1cnn(-c2ccc(NC(=O)c3cn(CC(=O)N4CC(O)C4)c4ccc(Cl)cc34)cc2)c1C [Compound 176]	6.41	–	–
CCCC(=O)c1cnn(-c2ccc(NC(=O)c3cn(CC(=O)N4CCc5[nH]ncc5C4)c4ccc(Cl)cc34)cc2)c1C [Compound 173]	6.77	–	–
CCCC(=O)c1cnn(-c2ccc(NC(=O)c3cn(CC(=O)O)c4cc(C)c(C)cc34)cc2)c1C [Compound 16]	–	5.34	–
CCCC(=O)c1cnn(-c2ccc(NC(=O)c3nn(CC(=O)O)c4ccc(C)cc34)cc2)c1C [Compound 24]	–	4.43	–
CCCC(=O)c1cnn(-c2ccc(NC(=O)c3cn(CC(=O)N4Cc5cccnc5C4)c4ccc(Cl)cc34)cc2)c1C [Compound 187]	6.21	–	–
CCCC(=O)c1cnn(-c2ccc(NC(=O)c3cn(CC(=O)N4CCN(CC(F)(F)F)CC4)c4ccc(C)cc34)cc2)c1C [Compound 129]	6.19	–	–
CCCC(=O)c1cnn(-c2ccc(NC(=O)c3cn(CC(=O)N4CCNCC4)c4ccc(C)cc34)cc2)c1C [Compound 243]	–	6.27	–
CCCC(=O)c1cnn(-c2ccc(NC(=O)c3cn(CC(=O)NC)c4ccc(Cl)cc34)nn2)c1C [Compound 32]	–	6.72	–
CCCC(=O)c1cnn(-c2ccc(NC(=O)c3cn(CC(=O)N4CCN(CCC)CC4)c4ccc(Cl)cc34)cc2)c1C [Compound 156]	6.52	–	–
CCCC(=O)c1cnn(-c2ccc(NC(=O)c3cn(CC(=O)N4CCN(CC)CC4)c4ccc(Cl)cc34)nn2)c1C [Compound 47]	–	7.22	–
CCCC(=O)c1cnn(-c2ccc(NC(=O)c3cn(CC(=O)O)c4ccc(Br)cc34)cc2)c1C [Compound 14]	–	5.72	–
CCCC(=O)c1cnn(-c2cnc(NC(=O)c3cn(CC(=O)N4CCN(C)CC4)c4ccc(Cl)cc34)cn2)c1C [Compound 27, N-[5-(4-Butyryl-5-methyl-1H-pyrazol-1-yl)pyrazin-2-yl]-5-chloro-1-[2-(4-methylpiperazin-1-yl)-2-oxoethyl]-1H-indole-3-carboxamide hydrochloride]	–	–	IC50 (Rattus norvegicus, Platelet, 0.1 h, read-out: Inhibition of platelet aggregation in vitro (rat blood) in μM): 0.3 µM
CCCC(=O)c1cnn(-c2ccc(NC(=O)c3cn(CC(=O)N4CCC(CO)CC4)c4ccc(Cl)cc34)nn2)c1C [Compound 56]	–	6.52	–
CCCC(=O)c1cnn(-c2ccc(NC(=O)c3cn(CC(=O)N4CCCC4)c4ccc(Cl)cc34)nn2)c1C [Compound 40]	–	7.00	–
CCCC(=O)c1cnn(-c2ccc(NC(=O)c3cn(CC(=O)N4CC5CCN(C)C5C4)c4ccc(C)cc34)cc2)c1C (stereo not drawn) [Compound 265]	–	6.10	–
CCCC(=O)c1cnn(-c2ccc(NC(=O)c3cn(CC(=O)N4CCN(CCC)CC4)c4ccc(Cl)cc34)nn2)c1C [Compound 48]	–	6.85	–
CCCC(=O)c1cnn(-c2ccc(NC(=O)c3cn(CC(=O)N4CCNC(=O)C4)c4ccc(Cl)cc34)nn2)c1C [Compound 64]	–	7.22	–
CCCC(=O)c1cnn(-c2ccc(NC(=O)c3cn(CC(=O)N(C)C4CCS(=O)(=O)C4)c4ccc(Cl)cc34)cc2)c1C (stereo not drawn) [Compound 169]	6.40	–	–
CCCC(=O)c1cnn(-c2ccc(NC(=O)c3cn(CC(=O)N4CCN(C5COC5)CC4)c4ccc(Cl)cc34)cc2)c1C [Compound 191]	6.80	–	–
CCCC(=O)c1cnn(-c2ccc(NC(=O)c3cn(CC(=O)N4CCN(C(C)C)CC4)c4ccc(C)cc34)cc2)c1C [Compound 124]	6.68	–	–

SMILES	pIC50 (rat blood, in vitro)	pIC50 [1]	further results
CCCC(=O)c1cnn(-c2ccc(NC(=O)c3cn(CC(=O)N4CCN(CCOCC)CC4)c4ccc(Cl)cc34)nn2)c1C [Compound 93]	–	6.82	–
CCCC(=O)c1cnn(-c2ccc(NC(=O)c3cn(CC(=O)N4Cc5cnn(C)c5C4)c4ccc(Cl)cc34)cc2)c1C [Compound 174]	6.31	–	–
CCCC(=O)c1cnn(-c2ccc(NC(=O)c3cn(CC(=O)N4CCN(Cc5ccc(F)cc5)CC4)c4ccc(Cl)cc34)cc2)c1C [Compound 165]	6.51	–	–
CC(=O)c1cnn(-c2ccc(NC(=O)c3cn(CC(=O)N4CCN(C)CC4)c4ccc(Cl)cc34)cc2)c1C [Compound 216]	6.14	–	–
CCCC(=O)c1cnn(-c2ccc(NC(=O)c3cn(CC(=O)N4CCC(CCO)CC4)c4ccc(Cl)cc34)nn2)c1C [Compound 50]	–	7.30	–
CCCC(=O)c1cnn(-c2ccc(NC(=O)c3cn(CC(=O)N4CCN(Cc5noc(C)n5)CC4)c4ccc(Cl)cc34)nn2)c1C [Compound 82]	–	7.30	–
CCCC(=O)c1cnn(-c2ccc(NC(=O)c3cn(CC(=O)N4CCN(C)CC4)c4cc(Cl)c(Cl)cc34)cc2)c1C [Compound 111]	5.43	–	–
CCCC(=O)c1cnn(-c2ccc(NC(=O)c3cn(CC(=O)N(C)CC4CCOC4)c4ccc(Cl)cc34)nn2)c1C (stereo not drawn) [Compound 91]	–	6.92	–
CCCC(=O)c1cnn(-c2ccc(NC(=O)c3cn(CC(=O)N4CCNC(CO)C4)c4ccc(C)cc34)cc2)c1C (stereo not drawn) [Compound 249]	–	6.62	–
CCCC(=O)c1cnn(-c2ccc(NC(=O)c3cn(CC(=O)N4CCNCC4)c4ccc(Cl)cc34)cc2)c1C [Compound 256]	–	6.64	–
CCCC(=O)c1cnn(-c2ccc(NC(=O)c3cn(CC(=O)N4CCn5cnnc5C4)c4ccc(Cl)cc34)cc2)c1C [Compound 182]	6.57	–	–
CCCC(=O)c1cnn(-c2ccc(NC(=O)c3cn(CC(=O)N4CCN5CCCCC5C4)c4ccc(Cl)cc34)nn2)c1C (racemic) [Compound 67]	–	7.05	–
CCCC(=O)c1cnn(-c2ccc(NC(=O)c3cn(CC(=O)N4CCN(Cc5ccc(F)cc5)CC4)c4ccc(Cl)cc34)nn2)c1C [Compound 92]	–	6.70	–
CCCC(=O)c1cnn(-c2ccc(NC(=O)c3cn(CC(=O)N4CCN5C(=O)CCC5C4)c4ccc(Cl)cc34)cc2)c1C (stereo not drawn) [Compound 183]	6.64	–	–
CCCC(=O)c1cnn(-c2ccc(NC(=O)c3cn(CC(=O)NCc4n[nH]c(C)n4)c4ccc(Cl)cc34)nn2)c1C [Compound 74]	–	6.92	–
CCCC(=O)c1cnn(-c2ccc(NC(=O)c3cn(CC(=O)NC(C)c4nn[nH]n4)c4ccc(Cl)cc34)nn2)c1C (stereo not drawn) [Compound 78]	–	6.55	–
CCCC(=O)c1cnn(-c2ccc(NC(=O)c3cn(CC(=O)O)c4cc(F)c(Cl)cc34)cc2)c1C [Compound 21]	–	5.55	–
CCCC(=O)c1cnn(-c2ccc(NC(=O)c3cn(CC(=O)O)c4cc(C)c(Br)cc34)cc2)c1C [Compound 20]	–	5.41	–
CCCC(=O)c1cnn(-c2ccc(NC(=O)c3cn(CC(=O)O)c4ccc(-c5ccccc5)cc34)cc2)c1C [Compound 15]	–	4.60	–
CCCC(=O)c1cnn(-c2ccc(NC(=O)c3cn(CC(=O)N4CCCC(N(C)C)C4)c4ccc(C)cc34)cc2)c1C (stereo not drawn) [Compound 125]	6.24	–	–
